Experimental data published in US20150315218A1, “SALTS OF PRODRUGS OF PIPERAZINE AND SUBSTITUTED PIPERIDINE ANTIVIRAL AGENTS” (Bristol-Myers Squibb Company, priority 2004, published 2015).
Where two headings read alike, the source gives them in different places.

How the values were obtained:
[1] = IV and oral rat PK (MAP) studies A, B, C of phosphate prodrugs and parent studies A1, B1, C1; format: in vivo, Sprague-Dawley rats; conditions: male, Sprague-Dawley, rat, rats; for Vd: read-out: Vss i.v.; for concentration at 24 h: oral, read-out: Cp @ 24 hr p.o.; for AUC(0-t): AUC 0-24 h (μM * hr)
Procedure: The rats for oral dosing studies were fasted overnight. […] The dosing solutions of all three prodrugs for both IV and oral administration were prepared in 100% normal saline at 1 mg/mL (dosing solution concentrations were parent compound equivalent). Plasma samples were collected in EDTA vacutainers over 24 hrs, and analyzed by LC/MS/MS for both the prodrugs and parent molecules. Pharmacokinetic analysis was performed on Kinetica™.
Plasma and tissue samples were collected and stored at −20° C. until analysis. […] Rats were fasted overnight in PO studies. […] In the PO studies, rats (n=3) received PO doses of 5 and 100 mg/kg.
Male Sprague-Dawley rats (300-350 g, Hilltop Lab Animals, Inc., Scottdale, Pa.) with cannulas implanted in the jugular vein and/or bile duct were used. The rats were fasted overnight in the PO pharmacokinetic studies. Blood samples of 0.3 ml were collected from the jugular vein in EDTA-containing microtainer tubes (Becton Dickinson, Franklin Lakes, N.J.), and centrifuged to separate plasma.

[2] = IV and PO pharmacokinetic studies of prodrug salts (Iab, Ibb, Icb) in the rat, with historical parent data; format: in vivo, Sprague-Dawley rats; conditions: for AUC: read-out: AUCtot; for Cmax: read-out: Cmax; for half-life: read-out: T1/2 (converted); for MRT: read-out: MRT
Procedure: (§1) All blood samples (0.3 mL) were colleted in microtainers containing K2EDTA (Becton Dickinson, Franklin Lakes, N.J.) and placed on chipped ice. After centrifugation, plasma was separated and stored at −20° C. until analysis. The mono-lysine salt of Iab (Form 3, Lot 1) was used for the pharmacokinetic studies. The dosing solutions of Iab were prepared in either sterile water (for IV administration in dogs and monkeys) or distilled water (for all other dose administration).
Male Sprague-Dawley rats (300-350 g, Hilltop Lab Animals, Inc., Scottsdale, Pa.) with cannulas implanted in the jugular vein were used. The rats were fasted overnight in the PO pharmacokinetic studies. Blood samples were collected from the jugular vein.
In the IV study, Iab was delivered at 1.4 mg/kg (free acid, or 1.1 mg/kg of IVa equivalent) as a bolus over 0.5 min (n=3).
In the PO study, Iab was administered at 7.9 mg/kg (free acid, or 6.3 mg/kg of IVa equivalent) by oral gavage (n=3). The concentration of the dosing solution was 4.0 mg/mL, and the dosing volume was 2 mL/kg.
The pharmacokinetic parameters of Iab and IVa were calculated by Non-Compartmental Analysis using the […]™ software program (version 4.0.2, InnaPhase Co., Philadelphia, Pa.). The Cmax and Tmax values were recorded directly from experimental observations. The AUC0-n and AUCtot values were calculated using the mixed log-linear trapezoidal summations. The total body clearance (Cl), mean residence time (MRT), and the steady state volume of distribution (Vss) were also calculated after intravenous administration. The absolute oral bioavailability (expressed as %) was estimated by taking the ratio of dose-normalized AUC values after oral doses to those after intravenous doses.
as §1, with “Ibb” for “Iab”, “3)” for “3, Lot 1)”
(§2) The Cmax and Tmax values were recorded directly from experimental observations. The AUC0-n and AUCtot values were calculated using the mixed log-linear trapezoidal summations. The total body clearance (Cl), mean residence time (MRT), and the steady state volume of distribution (Vss) were also calculated after intravenous administration. The absolute oral bioavailability (expressed as %) was estimated by taking the ratio of dose-normalized AUC values after oral doses to those after intravenous doses.
In the IV study, Icb was delivered at 1.4 mg/kg (free acid, or 1.1 mg/kg of IVe equivalent) as a bolus over 0.5 min (n=3).
In the PO study, Icb was administered at 6.9 mg/kg (free acid, or 5.6 mg/kg of IVe equivalent) by oral gavage (n=3).
as §2

[3] = plasma, 1 mg/kg, historic, parent IV 1 mpk
[4] = plasma, 5 mg/kg, after PO prodrug dosing equivalent to 5 mpk of parent, analyte = label
[5] = plasma, 5 mg/kg, historic, after PO dosing of parent 5 mpk
[6] = plasma, po, 5 mg/kg, after PO prodrug dosing equivalent to 5 mpk of parent, analyte = label
[7] = plasma, po, 5 mg/kg, historic, after PO dosing of parent 5 mpk
[8] = plasma, po, 5 mg/kg, after PO prodrug dosing equivalent to 5 mpk of parent
[9] = Sprague-Dawley, plasma, historical parent, PO 5 mg/kg, read-out: Bioavailability (%)
[10] = Sprague-Dawley, plasma, historical parent, PO 5 mg/kg, read-out: Tmax (hr), PO
[11] = male, Sprague-Dawley, plasma, oral prodrug, calculated from historical IV data of parent, read-out: Bioavailability (%) of parent from prodrug
[12] = male, Sprague-Dawley, plasma, parent after oral prodrug (~5-6 mg/kg parent equivalent), read-out: Tmax (hr), PO
[13] = plasma, oral, 5 mg/kg, read-out: C-24 hr
[14] = plasma, po, 5 mg/kg, read-out: Bioavailability
[15] = plasma, po, 5 mg/kg, read-out: Tmax

Compound	Vd [1, 3]	concentration at 24 h [1, 4]	concentration at 24 h [1, 5]	AUC(0-t) [1, 6]	AUC(0-t) [1, 7]	Tmax [1, 8]	Cmax [1, 6]	Tmax [1, 7]	bioavailability [2, 9]	Tmax [2, 10]	bioavailability [2, 11]	Tmax [2, 12]	AUC ([2]; plasma, iv, 1 mg/kg)	MRT ([2]; plasma, iv, 1 mg/kg)	bioavailability [2, 14]	Tmax [2, 15]	other results
O=C(C(=O)N1CCN(C(=O)c2ccccc2)CC1)c1c[nH]c2c(-n3ccnn3)ncc(F)c12 [IVb]	0.49 ± 0.26 L/kg	0.0075 µM	0.161 µM	13.7 ± 2.6 µM·h	86 ± 33 µM·h	1.1 h	3.9 ± 0.8 µM	4.6 h	60%	4.7 h	50%	0.83 h	24 ± 3.2 µM·h	5.6 ± 3.6 h	60%	4.7 ± 1.2 h	Cmax ([1]; in vivo, 5 mg/kg, historic, after PO dosing of parent 5 mpk): 9.5 ± 2.8 µM; half-life ([1]; plasma, iv, 1 mg/kg, after IV prodrug dosing equivalent to 1 mpk of parent, analyte = label, read-out: T1/2 i.v. (converted)): 1.5 ± 0.2 h; half-life ([1]; plasma, iv, 1 mg/kg, historic, parent IV 1 mpk, read-out: T1/2 i.v. (converted)): 5.9 ± 4.9 h; half-life ([1]; plasma, po, 5 mg/kg, after PO prodrug dosing equivalent to 5 mpk of parent, read-out: T1/2 p.o. (converted)): 2.4 ± 0.5 h; half-life ([1]; plasma, po, 5 mg/kg, historic, after PO dosing of parent 5 mpk, read-out: T1/2 p.o. (converted)): 3.7 ± 0.9 h; Vdss ([2]; IV IVb 1 mg/kg, historical IVb): 0.49 ± 0.26 L/kg; bioavailability ([2]; Sprague-Dawley (rats), breed of dogs and monkeys not stated, plasma, po, range over rats, dogs and monkeys, read-out: oral bioavailabilities of parent after administration of prodrug): 50 to 310%; AUC ([2]; in vivo, po, 5 mg/kg): 86 ± 33 µM·h; Cmax ([2]; in vivo, po, 5 mg/kg): 9.5 ± 2.8 µM; half-life ([2]; male, Sprague-Dawley, plasma, iv, […]): 3 ± 1.8 h; Cmax ([2]; male, Sprague-Dawley, plasma, po, 6.6 mg/kg): 19 ± 1.8 µM; Tmax ([2]; male, Sprague-Dawley, plasma, po, 6.6 mg/kg, read-out: Tmax): 0.83 ± 0.14 h; half-life ([2]; plasma, iv, 1 mg/kg): 5.9 ± 4.9 h; concentration at 24 h [2, 13]: 0.16 µM; half-life ([2]; plasma, po, 5 mg/kg): 3.7 ± 0.86 h
COc1cnc(-n2cnc(C)n2)c2[nH]cc(C(=O)C(=O)N3CCN(C(=O)c4ccccc4)CC3)c12 [IVc]	0.4 ± 0.09 L/kg	0.0843 µM	0.061 µM	56 ± 7.5 µM·h	110 ± 25 µM·h	0.8 ± 0.1 h	10.2 ± 2.1 µM	4 h	82%	4 h	80%	0.8 h	27 ± 4 µM·h	4.5 ± 0.77 h	82%	4 h	Cmax [1, 7]: 13.4 ± 3.6 µM; AUCtot ([2]; PO IVc 5 mg/kg, historical IVc): 111 ± 25 µM·h; bioavailability ([2]; male, Sprague-Dawley, plasma, oral, […], read-out: Bioavailability): 80%; Tmax ([2]; male, Sprague-Dawley, plasma, po, […], read-out: Tmax): 0.8 ± 0.3 h; Vd ([2]; plasma, iv, 1 mg/kg, read-out: Vdss): 0.36 ± 0.098 L/kg; concentration at 24 hr [2, 13]: 0.19 ± 0.048 µM; Cmax ([2]; plasma, po, 5 mg/kg): 13 ± 3.6 µM; bioavailability ([2]; plasma, po, range over rats, dogs and monkeys, read-out: oral bioavailabilities of parent after administration of prodrug): 80 to 122%
